From ChEMBL document CHEMBL5346898, “Triazole-fused pyrimidines in target-based anticancer drug discovery” (Eur J Med Chem, 2023)

Columns and labels:
Tubulin (Homo sapiens) = Tubulin (Homo sapiens) (UniProt P68371+Q9H4B7+P0DPH7+P68366+Q13509+Q71U36+P04350+Q3ZCM7+P07437+P68363+Q9BQE3+Q6PEY2+Q13885+Q9BVA1+Q9BUF5); assay: Inhibition of tubulin polymerization (unknown origin) at 10 uM by spectrophotometric analysis relative to control; format: protein-complex assay
[1] = target: Ubiquitin carboxyl-terminal hydrolase 7 (Homo sapiens, UniProt Q93009); assay: Inhibition of USP7 (unknown origin)
Chain of Ubiquitin carboxyl-terminal hydrolase 7 (Q93009 whole entry): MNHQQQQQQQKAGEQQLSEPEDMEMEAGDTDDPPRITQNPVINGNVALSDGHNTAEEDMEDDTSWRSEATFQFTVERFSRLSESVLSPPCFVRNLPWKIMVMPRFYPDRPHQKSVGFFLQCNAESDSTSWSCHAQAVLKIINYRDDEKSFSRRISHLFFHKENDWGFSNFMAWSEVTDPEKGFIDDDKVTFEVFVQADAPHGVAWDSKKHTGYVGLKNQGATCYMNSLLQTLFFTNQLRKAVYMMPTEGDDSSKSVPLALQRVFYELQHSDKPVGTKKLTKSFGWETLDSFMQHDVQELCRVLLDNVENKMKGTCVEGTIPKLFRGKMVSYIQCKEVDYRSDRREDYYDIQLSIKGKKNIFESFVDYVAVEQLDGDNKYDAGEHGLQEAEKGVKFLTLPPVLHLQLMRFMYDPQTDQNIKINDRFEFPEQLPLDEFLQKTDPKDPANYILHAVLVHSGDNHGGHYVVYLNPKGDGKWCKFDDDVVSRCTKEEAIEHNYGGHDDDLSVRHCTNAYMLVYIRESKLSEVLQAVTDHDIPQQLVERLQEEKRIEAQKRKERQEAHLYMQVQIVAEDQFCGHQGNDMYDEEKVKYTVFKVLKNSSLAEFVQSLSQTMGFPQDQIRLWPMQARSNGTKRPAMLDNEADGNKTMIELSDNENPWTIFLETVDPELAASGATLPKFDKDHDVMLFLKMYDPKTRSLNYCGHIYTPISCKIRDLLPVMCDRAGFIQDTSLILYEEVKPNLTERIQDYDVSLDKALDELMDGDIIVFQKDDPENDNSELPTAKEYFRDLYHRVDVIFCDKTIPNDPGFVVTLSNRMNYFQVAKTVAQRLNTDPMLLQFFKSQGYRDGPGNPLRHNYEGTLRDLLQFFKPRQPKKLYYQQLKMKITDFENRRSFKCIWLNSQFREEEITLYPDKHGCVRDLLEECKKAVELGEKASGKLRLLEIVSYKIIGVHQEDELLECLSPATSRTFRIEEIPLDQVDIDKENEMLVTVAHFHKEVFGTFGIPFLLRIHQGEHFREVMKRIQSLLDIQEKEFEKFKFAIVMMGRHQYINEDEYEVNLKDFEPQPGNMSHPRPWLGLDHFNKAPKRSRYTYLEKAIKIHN

[2] = target: Lysine-specific histone demethylase 1A (Homo sapiens, UniProt O60341); assay: Inhibition of LSD1 (unknown origin)
[3] = target: T1, Ubiquitin carboxyl-terminal hydrolase 28 (Homo sapiens, UniProt Q96RU2); assay: Inhibition of USP28 (unknown origin)
T1 sequence (Q96RU2 whole entry): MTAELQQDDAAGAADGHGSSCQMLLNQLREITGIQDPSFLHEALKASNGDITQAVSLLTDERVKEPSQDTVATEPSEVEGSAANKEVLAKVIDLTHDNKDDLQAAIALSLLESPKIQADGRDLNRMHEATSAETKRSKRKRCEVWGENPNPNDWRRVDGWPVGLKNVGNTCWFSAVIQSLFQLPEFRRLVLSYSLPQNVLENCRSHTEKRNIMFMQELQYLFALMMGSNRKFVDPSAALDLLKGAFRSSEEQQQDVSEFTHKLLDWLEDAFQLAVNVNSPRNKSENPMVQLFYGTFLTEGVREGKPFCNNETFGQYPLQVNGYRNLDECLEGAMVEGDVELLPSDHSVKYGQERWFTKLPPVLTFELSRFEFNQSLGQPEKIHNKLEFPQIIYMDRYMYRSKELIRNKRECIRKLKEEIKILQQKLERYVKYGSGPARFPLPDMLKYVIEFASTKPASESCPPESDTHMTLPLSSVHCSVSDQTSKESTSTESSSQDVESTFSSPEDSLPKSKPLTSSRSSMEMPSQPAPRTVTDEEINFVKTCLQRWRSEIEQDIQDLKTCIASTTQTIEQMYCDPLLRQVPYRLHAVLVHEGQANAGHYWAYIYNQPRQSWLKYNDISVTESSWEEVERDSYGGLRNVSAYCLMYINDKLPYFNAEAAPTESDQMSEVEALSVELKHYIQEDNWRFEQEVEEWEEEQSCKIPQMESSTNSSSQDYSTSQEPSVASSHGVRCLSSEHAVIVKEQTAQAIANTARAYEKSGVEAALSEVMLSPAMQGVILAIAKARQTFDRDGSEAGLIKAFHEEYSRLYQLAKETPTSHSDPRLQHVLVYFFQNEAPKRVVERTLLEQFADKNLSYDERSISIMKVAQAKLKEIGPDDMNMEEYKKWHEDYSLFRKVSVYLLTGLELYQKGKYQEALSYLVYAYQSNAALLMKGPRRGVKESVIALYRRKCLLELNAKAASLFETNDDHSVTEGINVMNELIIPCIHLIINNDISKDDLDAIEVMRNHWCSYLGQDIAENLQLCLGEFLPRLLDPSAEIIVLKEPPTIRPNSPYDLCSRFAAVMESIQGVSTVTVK

Tubulin [4] = assay: Inhibition of tubulin polymerization (unknown origin); format: protein-complex assay, Homo sapiens
[5] = Anticancer activity against human A2780AD cells assessed as cell growth measured after 48 hrs by MTT assay; format: functional, cell-based
A2780 = assay: Anticancer activity against human A2780 cells assessed as cell growth measured after 48 hrs by MTT assay; format: functional, cell-based; conditions: A2780, 48 h
G-401 = assay: Anticancer activity against human G-401 cells assessed as cell growth inhibition; format: functional, cell-based
eIF-2-alpha kinase GCN2 [6] = target: T2, eIF-2-alpha kinase GCN2 (Homo sapiens, UniProt Q9P2K8); assay: Inhibition of human GCN2 (unknown origin)
T2 sequence (Q9P2K8 whole entry): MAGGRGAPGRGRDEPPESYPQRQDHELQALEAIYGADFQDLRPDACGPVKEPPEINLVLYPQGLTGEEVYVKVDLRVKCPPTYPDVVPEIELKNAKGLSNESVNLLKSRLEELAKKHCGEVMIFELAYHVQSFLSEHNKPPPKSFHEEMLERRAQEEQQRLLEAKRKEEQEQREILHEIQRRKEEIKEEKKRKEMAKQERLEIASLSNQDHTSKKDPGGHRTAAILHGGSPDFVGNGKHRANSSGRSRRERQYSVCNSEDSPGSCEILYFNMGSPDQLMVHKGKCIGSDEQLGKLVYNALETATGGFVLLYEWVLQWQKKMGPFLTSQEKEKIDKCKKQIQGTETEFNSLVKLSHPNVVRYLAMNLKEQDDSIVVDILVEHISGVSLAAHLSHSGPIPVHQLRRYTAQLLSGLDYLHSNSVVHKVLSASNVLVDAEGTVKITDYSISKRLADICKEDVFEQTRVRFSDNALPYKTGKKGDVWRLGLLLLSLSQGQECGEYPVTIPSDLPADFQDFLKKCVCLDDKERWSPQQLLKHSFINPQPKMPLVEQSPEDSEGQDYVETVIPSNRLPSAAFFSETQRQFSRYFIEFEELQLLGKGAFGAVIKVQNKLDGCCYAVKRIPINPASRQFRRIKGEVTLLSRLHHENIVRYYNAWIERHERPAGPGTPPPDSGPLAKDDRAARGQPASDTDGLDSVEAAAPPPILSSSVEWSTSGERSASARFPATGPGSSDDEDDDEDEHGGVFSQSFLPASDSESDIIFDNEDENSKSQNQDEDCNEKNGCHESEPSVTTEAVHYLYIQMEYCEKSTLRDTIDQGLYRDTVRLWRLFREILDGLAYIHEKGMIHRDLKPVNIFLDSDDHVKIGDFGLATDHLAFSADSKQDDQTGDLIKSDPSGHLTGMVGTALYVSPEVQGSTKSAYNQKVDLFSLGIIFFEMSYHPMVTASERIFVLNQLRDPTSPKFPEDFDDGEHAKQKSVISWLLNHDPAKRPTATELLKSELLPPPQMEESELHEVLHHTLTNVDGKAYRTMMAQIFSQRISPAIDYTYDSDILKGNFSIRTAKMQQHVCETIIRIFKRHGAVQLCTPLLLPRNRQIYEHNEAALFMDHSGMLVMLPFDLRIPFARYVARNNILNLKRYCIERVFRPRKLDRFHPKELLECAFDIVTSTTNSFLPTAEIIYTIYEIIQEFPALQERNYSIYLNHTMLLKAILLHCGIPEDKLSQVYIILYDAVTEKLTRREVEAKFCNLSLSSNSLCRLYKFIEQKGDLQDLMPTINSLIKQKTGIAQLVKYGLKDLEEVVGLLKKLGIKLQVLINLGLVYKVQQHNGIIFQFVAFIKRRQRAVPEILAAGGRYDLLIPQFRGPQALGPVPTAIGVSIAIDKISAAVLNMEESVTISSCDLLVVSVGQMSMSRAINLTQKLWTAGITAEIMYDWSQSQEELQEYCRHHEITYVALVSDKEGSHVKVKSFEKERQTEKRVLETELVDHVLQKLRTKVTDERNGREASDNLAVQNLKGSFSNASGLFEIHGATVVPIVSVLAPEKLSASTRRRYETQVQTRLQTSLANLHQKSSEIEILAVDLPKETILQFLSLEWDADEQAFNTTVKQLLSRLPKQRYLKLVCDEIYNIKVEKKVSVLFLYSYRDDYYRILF

eIF-2-alpha kinase GCN2 [7] = target: T2, eIF-2-alpha kinase GCN2; assay: Inhibition of human recombinant GCN2 using eIF2alpha as substrate
Tubulin [8] = assay: Inhibition of tubulin polymerization (unknown origin) by spectrophotometric analysis; format: protein-complex assay, Homo sapiens
SW620/AD300 = assay: Antitumor activity against […] SW620/AD300 cells xenografted in BALB/c nude mouse assessed as relative tumor proliferation rate at 100 mg/kg/day, IG measured after 15 days relative to control; format: functional, Homo sapiens; conditions: time 15 day
Polycomb protein EED = Polycomb protein EED (Homo sapiens, UniProt O75530); assay: Inhibition of EED (unknown origin)
Chain of Polycomb protein EED (O75530 whole entry): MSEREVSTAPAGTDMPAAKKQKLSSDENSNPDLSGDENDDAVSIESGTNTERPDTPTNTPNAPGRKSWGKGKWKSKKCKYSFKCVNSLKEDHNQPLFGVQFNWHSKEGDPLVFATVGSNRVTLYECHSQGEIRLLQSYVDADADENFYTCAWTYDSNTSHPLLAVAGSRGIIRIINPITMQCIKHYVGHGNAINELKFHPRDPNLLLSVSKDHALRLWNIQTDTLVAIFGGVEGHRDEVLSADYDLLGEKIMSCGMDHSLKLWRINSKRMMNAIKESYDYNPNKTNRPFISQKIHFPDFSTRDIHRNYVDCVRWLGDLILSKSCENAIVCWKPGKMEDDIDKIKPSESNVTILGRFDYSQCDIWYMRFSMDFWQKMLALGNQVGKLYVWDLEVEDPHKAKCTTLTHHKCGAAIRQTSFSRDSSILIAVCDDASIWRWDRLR

Compound `COc1cc(-c2nc3nc(C)c(C(C)=O)c(-c4ccc([N+](=O)[O-])cc4)n3n2)cc(OC)c1OC` has an inhibition (Tubulin (Homo sapiens)) of 42%.
Work on `CCCSc1nc(NCCN)c2nnn(Cc3ccc(Cl)cc3)c2n1` yielded an IC50 [1] greater than 100000 nM, an IC50 [2] greater than 100000 nM and an IC50 [3] of 1100 nM.
Work on `COc1cc(-c2cc(-c3ccc(Cl)cc3)nc3nc(N)nn23)cc(OC)c1OC` yielded an IC50 (Tubulin [4]) of 3840 nM.
`CO[C@H]1C[C@H]2CC[C@@H](C1)N2c1c(-c2c(F)cc(F)cc2F)c(Cl)nc2ncnn12` showed an IC50 [5] of 81 nM and an IC50 (A2780) of 51 nM.
`N#Cc1c2c(c3nncn3c1NCc1ccco1)CN(Cc1ccccc1)CC2` showed an IC50 (G-401) of 3280 nM.
`c1nn(C2CCOCC2)cc1Nc1ncc2nnn(-c3ccc4cn[nH]c4c3)c2n1` gave an IC50 (eIF-2-alpha kinase GCN2 [6]) of less than 300 nM.
`COc1ccc(-n2nnc3cnc(Nc4ccc(N)c(C)c4)nc32)cc1` showed an IC50 (eIF-2-alpha kinase GCN2 [7]) of 4 nM.
With `Cc1cc(Nc2ccc(F)cc2)n2nc(NCCCc3ccccc3)nc2n1` the IC50 (Tubulin [4]) was 390 nM.
`CCOc1ccc(-n2nnc3cnc(Nc4cnn(C5CCOCC5)c4)nc32)cc1` showed an IC50 (eIF-2-alpha kinase GCN2 [6]) of 16 nM.
In the case of `COc1ccc(-c2c(C(C)=O)c(C)nc3nc(-c4cc(OC)c(OC)c(OC)c4)nn23)cc1[N+](=O)[O-]`, the IC50 (Tubulin [8]) is reported as 9900 nM.
Compound `Cc1cc(Nc2ccccc2)n2nc(SCc3nc4ccccc4[nH]3)nc2n1` has a T/C (SW620/AD300) of 29.7%.
`CS(=O)(=O)c1ccc(-c2cnc(NCc3ccco3)n3cnnc23)cc1` showed an IC50 (G-401) of 85000 nM and an IC50 (Polycomb protein EED) of 30 nM.
`Cc1ncccc1-c1cnc(NCc2c(F)cc(N)c3c2CCO3)n2cnnc12` showed an IC50 (Polycomb protein EED) of 50 nM.
